Laboratory results as given in ChEMBL document CHEMBL1136564, “Sordaricin antifungal agents” (2003).
Values after ≈ are worked out from the molar mass of the structure shown.

Tests used:
Type in all cases: functional
Candida albicans = assay: Minimum inhibitory concentration to inhibit 90 to 100% visible growth of Candida albicans
Nakaseomyces glabratus = assay: Minimum inhibitory concentration required to inhibit 90 to 100% visible growth of Candida glabrata
HEp-2 = assay: In vitro cytotoxic concentration against Hep2 cells.; conditions: Homo sapiens
[1] = In vitro therapeutic index (calculated as CC50/MIC (Candida albicans)).

Row | MIC (Candida albicans) | MIC (Nakaseomyces glabratus) | Compound | CC50 (HEp-2) | Therapeutic index [1]
1 | > 128 µg/mL | > 128 µg/mL | CC(C)C1=CC2CC3(C=O)C4CC[C@@H](C)C4CC2(CCOC(=O)c2cccn2C)C13C(=O)O (stereo not given in full) | – | –
2 | 32 µg/mL (≈ 71 µM) | > 128 µg/mL | CC(C)C1=CC2CC3(C=O)C4CC[C@@H](C)C4CC2(CCOC(=O)c2ccccc2)C13C(=O)O (stereo not given in full) | – | –
3 | 2 µg/mL (≈ 3.47 µM) | > 128 µg/mL | CC(C)C1=CC2CC3(C=O)C4CC[C@@H](C)C4CC2(CCOC(=O)c2ccc(I)cc2)C13C(=O)O (stereo not given in full) | – | –
4 | 0.5 µg/mL (≈ 1.13 µM) | 16 µg/mL (≈ 36.1 µM) | CC(C)C1=CC2CC3(C=O)[C@@H]4CC[C@@H](C)[C@H]4CC2(C(O)CCC2CCCCC2)[C@]13C(=O)O (stereo not given in full) | 1.5 µg/mL (≈ 3.39 µM) | 3
5 | > 128 µg/mL | > 128 µg/mL | CC(=O)OCC(=O)OCCC12CC3C(CC[C@H]3C)C3(C=O)CC1C=C(C(C)C)C32C(=O)O (stereo not given in full) | – | –
6 | > 128 µg/mL | > 128 µg/mL | CC(C)C1=CC2CC3(C=O)C4CC[C@@H](C)C4CC2(CCOC(=O)c2cc[n+]([O-])cc2)C13C(=O)O (stereo not given in full) | – | –
7 | 8 µg/mL (≈ 14.3 µM) | > 128 µg/mL | CC(C)C1=CC2CC3(C=O)C4CC[C@@H](C)C4CC2(CCOC(=O)C2CCN(C(=O)OC(C)(C)C)CC2)C13C(=O)O (stereo not given in full) | – | –
8 | 8 µg/mL (≈ 18.2 µM) | > 128 µg/mL | CC(C)C1=CC2CC3(C=O)C4CC[C@@H](C)C4CC2(CCOC(=O)c2ccco2)C13C(=O)O (stereo not given in full) | – | –
9 | 8 µg/mL (≈ 18 µM) | > 128 µg/mL | CC(=O)CCC(=O)OCCC12CC3C(CC[C@H]3C)C3(C=O)CC1C=C(C(C)C)C32C(=O)O (stereo not given in full) | – | –
10 | 4 µg/mL (≈ 8.25 µM) | > 128 µg/mL | CC(C)C1=CC2CC3(C=O)C4CC[C@@H](C)C4CC2(CCOC(=O)c2ccc(Cl)cc2)C13C(=O)O (stereo not given in full) | – | –
11 | 16 µg/mL (≈ 29.4 µM) | 128 µg/mL (≈ 235 µM) | CC(C)C1=CC2CC3(C=O)C4CC[C@@H](C)C4CC2(CCOC(=O)[C@@H]2CCCN2C(=O)OC(C)(C)C)C13C(=O)O (stereo not given in full) | – | –
12 | 16 µg/mL (≈ 35.4 µM) | > 128 µg/mL | CC(C)C1=CC2CC3(C=O)C4CC[C@@H](C)C4CC2(CCOC(=O)c2cccnc2)C13C(=O)O (stereo not given in full) | – | –
13 | 0.5 µg/mL (≈ 1.17 µM) | 8 µg/mL (≈ 18.7 µM) | CC(C)C1=CC2CC3(C=O)C4CC[C@@H](C)C4CC2(CCOC(=O)C2CCC2)C13C(=O)O (stereo not given in full) | – | –
14 | > 128 µg/mL | > 128 µg/mL | CC(C)C1=CC2CC3(C=O)C4CC[C@@H](C)C4CC2(CCOC(=O)c2cc(C(=O)O)[nH]n2)C13C(=O)O (stereo not given in full) | – | –
15 | 16 µg/mL (≈ 36.8 µM) | 8 µg/mL (≈ 18.4 µM) | CC(C)C1=CC2CC3(C=O)[C@@H]4CC[C@@H](C)[C@H]4CC2(C(=O)CCc2ccccc2)[C@]13C(=O)O | – | –
16 | 1 µg/mL (≈ 1.97 µM) | > 128 µg/mL | CC(C)C1=CC2CC3(C=O)C4CC[C@@H](C)C4CC2(CCOC(=O)Cc2ccc(N(C)C)cc2)C13C(=O)O (stereo not given in full) | – | –

Row | MIC (Candida albicans) | MIC (Nakaseomyces glabratus) | Compound | CC50 (HEp-2) | Therapeutic index [1]
17 | < 0.06 µg/mL | 8 µg/mL (≈ 17.5 µM) | CC(C)C1=CC2CC3(C=O)C4CC[C@@H](C)C4CC2(CCOC(=O)C2CCCCC2)C13C(=O)O (stereo not given in full) | – | –
18 | > 128 µg/mL | > 128 µg/mL | CC(C)C1=CC2CC3(C=O)C4CC[C@@H](C)C4CC2(CCOC(=O)c2nccc4ccccc24)C13C(=O)O (stereo not given in full) | – | –
19 | 128 µg/mL (≈ 310 µM) | 128 µg/mL (≈ 310 µM) | CC(C)C1=CC2CC3(C=O)[C@@H]4CC[C@@H](C)[C@H]4CC2(C(O)C#CC(C)(C)C)[C@]13C(=O)O (stereo not given in full) | – | –
20 | 2 µg/mL (≈ 4.4 µM) | 64 µg/mL (≈ 141 µM) | CC(C)C1=CC2CC3(C=O)C4CC[C@@H](C)C4CC2(CCOC(=O)Cc2ccco2)C13C(=O)O (stereo not given in full) | – | –
21 | 0.5 µg/mL (≈ 1.17 µM) | > 128 µg/mL | CC(C)CCCCC(=O)C12C[C@@H]3[C@H](C)CC[C@H]3C3(C=O)CC1C=C(C(C)C)[C@@]23C(=O)O | 2.5 µg/mL (≈ 5.83 µM) | 5
22 | < 0.06 µg/mL | 0.125 µg/mL (≈ 0.286 µM) | CC(C)C1=CC2CC3(C=O)[C@@H]4CC[C@@H](C)[C@H]4CC2(C(=O)C#CCC2CCCC2)[C@]13C(=O)O | 0.9 µg/mL (≈ 2.06 µM) | > 15
23 | > 128 µg/mL | > 128 µg/mL | CC(C)C1=CC2CC3(C=O)C4CC[C@@H](C)C4CC2(CCOC(=O)c2ccc(Br)cc2)C13C(=O)O (stereo not given in full) | – | –
24 | > 128 µg/mL | > 128 µg/mL | CC(C)C1=CC2CC3(C=O)C4CC[C@@H](C)C4CC2(CCOC(=O)c2cccc(C(=O)O)n2)C13C(=O)O (stereo not given in full) | – | –
25 | > 128 µg/mL | > 128 µg/mL | CC(C)C1=CC2CC3(C=O)C4CC[C@@H](C)C4CC2(CCO)C13C(=O)O (stereo not given in full) | – | –
26 | > 128 µg/mL | > 128 µg/mL | CC(C)C1=CC2CC3(C=O)C4CC[C@@H](C)C4CC2(CCOC(=O)c2cnc(O)nc2O)C13C(=O)O (stereo not given in full) | – | –
27 | < 0.06 µg/mL | 4 µg/mL (≈ 9 µM) | CC(C)C1=CC2CC3(C=O)C4CC[C@@H](C)C4CC2(CCOC(=O)CC(C)(C)C)C13C(=O)O (stereo not given in full) | – | –
28 | 64 µg/mL (≈ 124 µM) | > 128 µg/mL | CC(C)C1=CC2CC3(C=O)C4CC[C@@H](C)C4CC2(CCOC(=O)CCNC(=O)OC(C)(C)C)C13C(=O)O (stereo not given in full) | – | –
29 | > 128 µg/mL | > 128 µg/mL | CCCCCCCCCCCCCCCCC(O)C12C[C@@H]3[C@H](C)CC[C@H]3C3(C=O)CC1C=C(C(C)C)[C@@]23C(=O)O (stereo not given in full) | – | –
30 | 128 µg/mL (≈ 254 µM) | > 128 µg/mL | CC(C)C1=CC2CC3(C=O)C4CC[C@@H](C)C4CC2(CCOC(=O)CNC(=O)OC(C)(C)C)C13C(=O)O (stereo not given in full) | – | –
31 | 0.5 µg/mL (≈ 0.979 µM) | > 128 µg/mL | CSc1ccc(CC(=O)OCCC23CC4C(CC[C@H]4C)C4(C=O)CC2C=C(C(C)C)C43C(=O)O)cc1 (stereo not given in full) | – | –
32 | 0.5 µg/mL (≈ 1.17 µM) | 16 µg/mL (≈ 37.3 µM) | CC(C)=CC(=O)OCCC12CC3C(CC[C@H]3C)C3(C=O)CC1C=C(C(C)C)C32C(=O)O (stereo not given in full) | – | –
